Test results as given in ChEMBL document CHEMBL3259730, “Synthesis and biological evaluation of 2,3-diaryl isoquinolinone derivatives as anti-breast cancer agents targeting ERα and VEGFR-2” (Bioorg Med Chem Lett, 2014).

Assays:
MCF7 = test: Antiproliferative activity against human MCF7 cells after 48 hrs by MTT assay; type: functional, cell-based; conditions: MCF7, 48 h
[1] = biological target: Vascular endothelial growth factor receptor 2 (Homo sapiens) (UniProt P35968); conditions: at 0.1 mg/mL;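 further: VEGFR-2 inhibition read out by HTRF after 1 h, with the receptor's origin stated as unknown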
Vascular endothelial growth factor receptor 2 (Homo sapiens), sequence (P35968 whole entry): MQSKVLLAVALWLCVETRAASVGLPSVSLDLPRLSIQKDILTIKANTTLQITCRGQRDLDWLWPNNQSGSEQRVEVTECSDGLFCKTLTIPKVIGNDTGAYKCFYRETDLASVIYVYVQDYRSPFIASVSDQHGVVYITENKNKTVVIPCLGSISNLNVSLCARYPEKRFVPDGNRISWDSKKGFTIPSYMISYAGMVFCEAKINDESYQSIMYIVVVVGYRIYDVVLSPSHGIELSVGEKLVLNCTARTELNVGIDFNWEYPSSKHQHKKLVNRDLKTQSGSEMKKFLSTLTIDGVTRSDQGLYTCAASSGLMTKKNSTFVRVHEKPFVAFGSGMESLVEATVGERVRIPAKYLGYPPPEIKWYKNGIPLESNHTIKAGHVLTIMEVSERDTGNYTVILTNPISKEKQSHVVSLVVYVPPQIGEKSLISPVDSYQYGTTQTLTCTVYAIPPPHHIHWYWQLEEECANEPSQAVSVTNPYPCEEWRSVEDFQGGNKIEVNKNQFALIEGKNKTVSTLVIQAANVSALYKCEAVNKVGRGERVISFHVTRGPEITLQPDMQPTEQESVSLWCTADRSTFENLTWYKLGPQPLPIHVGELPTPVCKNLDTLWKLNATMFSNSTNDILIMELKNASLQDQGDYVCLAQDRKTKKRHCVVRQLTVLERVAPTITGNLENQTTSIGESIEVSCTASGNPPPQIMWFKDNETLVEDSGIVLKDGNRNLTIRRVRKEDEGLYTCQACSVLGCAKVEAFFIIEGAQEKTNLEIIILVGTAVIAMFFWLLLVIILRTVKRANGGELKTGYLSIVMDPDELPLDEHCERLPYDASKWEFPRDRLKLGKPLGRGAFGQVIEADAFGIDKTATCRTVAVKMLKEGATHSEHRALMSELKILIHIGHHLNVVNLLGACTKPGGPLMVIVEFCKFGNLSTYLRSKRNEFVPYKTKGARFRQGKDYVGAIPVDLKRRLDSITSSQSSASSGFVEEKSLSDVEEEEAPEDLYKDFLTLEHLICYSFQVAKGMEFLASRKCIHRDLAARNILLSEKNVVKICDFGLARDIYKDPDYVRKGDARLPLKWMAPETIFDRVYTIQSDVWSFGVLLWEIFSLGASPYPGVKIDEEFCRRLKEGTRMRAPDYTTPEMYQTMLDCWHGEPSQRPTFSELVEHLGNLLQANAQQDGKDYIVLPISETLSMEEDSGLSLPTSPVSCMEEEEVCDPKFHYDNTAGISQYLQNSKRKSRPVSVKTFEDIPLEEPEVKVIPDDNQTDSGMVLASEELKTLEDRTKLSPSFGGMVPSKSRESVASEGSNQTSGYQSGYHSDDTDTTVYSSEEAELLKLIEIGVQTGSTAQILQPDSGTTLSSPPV
Description: Inhibition of VEGFR-2 (unknown origin) at 0.1 mg/ml after 1 hr by HTRF assay

Chorioallantoic membrane = test: Antiangiogenic activity in Chicken chorioallantoic membrane after 72 hrs relative to control; type: functional, cell membranes; conditions: Gallus gallus

Compound | IC50 (MCF7) [µM] | inhibition [1] [%] | inhibition (Chorioallantoic membrane)
CN(C)CCOc1ccc(-n2c(-c3ccc(O)cc3)cc3ccc(O)cc3c2=O)cc1 | 18.9 | 79.4 | 
O=c1c2cc(O)ccc2cc(-c2ccc(O)cc2)n1-c1ccc(OCCCN2CCCCC2)cc1 | 2.73 | 100 | Dose-dependent effect
O=c1c2cc(O)ccc2cc(-c2ccc(O)cc2)n1-c1ccc(OCCCN2CCCC2)cc1 | 12.7 | 48.3 | 
O=c1c2cc(O)ccc2cc(-c2ccc(O)cc2)n1-c1ccc(OCCN2CCCCC2)cc1 | 3.63 | 84.8 | 
CN1CCN(CCOc2ccc(-n3c(-c4ccc(O)cc4)cc4ccc(O)cc4c3=O)cc2)CC1 | 9.45 | 103 | Dose-dependent effect
COc1ccc(-c2cc3ccc(OC)cc3c(=O)n2-c2ccc(OCCN3CCN(C)CC3)cc2)cc1 | 429 | 79.4 | 
O=c1c2cc(O)ccc2cc(-c2ccc(O)cc2)n1-c1ccc(OCCN2CCCC2)cc1 | 11.8 | 49.9 | 
CC/C(=C(\c1ccccc1)c1ccc(OCCN(C)C)cc1)c1ccccc1 [TAMOXIFEN] | 1.89 |  | 
CCN(CC)CCOc1ccc(-n2c(-c3ccc(OC)cc3)cc3ccc(OC)cc3c2=O)cc1 | 383 | 92.5 | 
COc1ccc(-c2cc3ccc(OC)cc3c(=O)n2-c2ccc(OCCN(C)C)cc2)cc1 | > 1000 | 66.1 | 

The next lines start with results.

IC50 (MCF7) [µM] | inhibition [1] [%] | Compound | inhibition (Chorioallantoic membrane)
> 1000 | 72.8 | COc1ccc(-c2cc3ccc(OC)cc3c(=O)n2-c2ccc(OCCCN3CCCCC3)cc2)cc1 | 
863 | 83.8 | COc1ccc(-c2cc3ccc(OC)cc3c(=O)n2-c2ccc(OCCN3CCCC3)cc2)cc1 | 
> 1000 | 51.2 | COc1ccc(-c2cc3ccc(OC)cc3c(=O)n2-c2ccc(OCCN3CCOCC3)cc2)cc1 | 
479 | 98.5 | COc1ccc(-c2cc3ccc(OC)cc3c(=O)n2-c2ccc(OCCCN3CCCC3)cc2)cc1 | 
322 | 65.3 | COc1ccc(-c2cc3ccc(OC)cc3c(=O)n2-c2ccc(OCCN3CCCCC3)cc2)cc1 | 
